Measured values from patent US6441195B1, “Substituted sulphonylamino(thio) carbonyl compounds” (Bayer Aktiengesellschaft, priority 1995, dated 2002).

Experiments:
Assay type in all cases: in vivo
[1] = system: Ambrosia; assay: Pre-emergence test/Greenhouse, Ambrosia; details: after three weeks
Procedure, shortened: (§1)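 Percent damage relative to untreated control plants, scored three weeks after treatment, is the read-out (0% meaning no effect). Treatment consisted of watering the soil with an emulsified aqueous preparation roughly 24 h after seeds were sown, at constant water volume per area.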

[2] = system: Solanum; assay: Pre-emergence test/Greenhouse, Solanum; details: after three weeks
Procedure, shortened: as §1

[3] = system: Matricaria; assay: Pre-emergence test/Greenhouse, Matricaria; details: after three weeks
Procedure, shortened: as §1

[4] = system: Maize; assay: Pre-emergence test/Greenhouse, Maize; details: in vivo
Procedure, shortened: as §1

[5] = system: weeds; assay: Pre-emergence test (greenhouse), activity against weeds; details: in words
Procedure, shortened: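 Compound formulated in acetone with alkylaryl polyglycol ether emulsifier, diluted in water, and watered onto soil about 24 h after sowing, dosed by application rate per unit area. Damage rated after three weeks as % versus untreated control (0% = no action).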

[6] = system: Sorghum; assay: Pre-emergence test/Greenhouse, Sorghum; details: after three weeks
Procedure, shortened: as §1

[7] = system: Lolium; assay: Pre-emergence test/Greenhouse, Lolium; details: after three weeks
Procedure, shortened: as §1

[8] = system: Soya beans; assay: Pre-emergence test/Greenhouse, Soya beans; details: in vivo
Protocol: To produce a suitable preparation of the active compound, 1 part by weight of active compound is mixed with the stated amount of solvent, the stated amount of emulsifier is added and the concentrate is diluted with water to the desired concentration.
Seeds of the test plants are sown in normal soil. After about 24 hours, the soil is watered with the preparation of active compound. Advantageously, the amount of water per unit area is kept constant. The active compound concentration in the preparation is not important, only the active compound appliation rate per unit area matters.
After three weeks, the degree of damage to the plants is rated in % damage in comparison to the development of the untreated control.
0%=no action (like untreated control)

[9] = system: Poa; assay: Pre-emergence test/Greenhouse, Poa; details: after three weeks
Procedure, shortened: as §1

Row | Compound | degree of damage to the plants (% damage vs untreated control), Ambrosia ([1]; 60 g of ai./ha) [%] | degree of damage to the plants (% damage vs untreated control), Solanum ([2]; 60 g of ai./ha) [%] | degree of damage to the plants (% damage vs untreated control), Matricaria ([3]; 60 g of ai./ha) [%] | degree of damage to the plants (% damage vs untreated control), Maize [4] [%] | activity against weeds [5] | degree of damage to the plants (% damage vs untreated control), Sorghum ([6]; 60 g of ai./ha) [%] | degree of damage to the plants (% damage vs untreated control), Lolium ([7]; 60 g of ai./ha) [%] | degree of damage to the plants (% damage vs untreated control), Soya beans [8] [%] | degree of damage to the plants (% damage vs untreated control), Poa ([9]; 60 g of ai./ha) [%] | other results
1 | COC(=O)c1cccc(C)c1S(=O)(=O)[N-]C(=O)n1nc(SC)n(C)c1=O.[Na+] [Example 145] | 95 | 95 | 60 | 0 | very strong activity against weeds | 95 | 95 | 0 | 95 | –
2 | CCCOC(=O)c1cccc(Cl)c1S(=O)(=O)NC(=O)n1nc(OCC)n(C)c1=O [Example 134] | – | – | – | 0 | very strong activity against weeds | – | – | 20 | – | degree of damage to the plants (% damage vs untreated control), Ambrosia ([1]; 500 g of ai./ha): 80%; degree of damage to the plants (% damage vs untreated control), Solanum ([2]; 500 g of ai./ha): 95%; degree of damage to the plants (% damage vs untreated control), Matricaria ([3]; 500 g of ai./ha): 90%; degree of damage to the plants (% damage vs untreated control), Sorghum ([6]; 500 g of ai./ha): 70%; degree of damage to the plants (% damage vs untreated control), Lolium ([7]; 500 g of ai./ha): 95%; degree of damage to the plants (% damage vs untreated control), Poa ([9]; 500 g of ai./ha): 90%
3 | CCOC(=O)c1cccc(C)c1S(=O)(=O)NC(=O)c1noc(C)n1 [Example 10] | – | – | – | 0 | very strong activity against weeds | – | – | 20 | – | degree of damage to the plants (% damage vs untreated control), Ambrosia ([1]; 250 g of ai./ha): 95%; degree of damage to the plants (% damage vs untreated control), Solanum ([2]; 250 g of ai./ha): 95%; degree of damage to the plants (% damage vs untreated control), Matricaria ([3]; 250 g of ai./ha): 95%; degree of damage to the plants (% damage vs untreated control), Sorghum ([6]; 250 g of ai./ha): 70%; degree of damage to the plants (% damage vs untreated control), Lolium ([7]; 250 g of ai./ha): 80%; degree of damage to the plants (% damage vs untreated control), Poa ([9]; 250 g of ai./ha): 90%
4 | COC(=O)c1cccc(Cl)c1S(=O)(=O)NC(=O)n1nc(SC)n(C)c1=O [Example 130] | – | – | – | 10 | very strong activity against weeds | – | – | 0 | – | degree of damage to the plants (% damage vs untreated control), Ambrosia ([1]; 250 g of ai./ha): 95%; degree of damage to the plants (% damage vs untreated control), Solanum ([2]; 250 g of ai./ha): 95%; degree of damage to the plants (% damage vs untreated control), Matricaria ([3]; 250 g of ai./ha): 95%; degree of damage to the plants (% damage vs untreated control), Sorghum ([6]; 250 g of ai./ha): 80%; degree of damage to the plants (% damage vs untreated control), Lolium ([7]; 250 g of ai./ha): 95%; degree of damage to the plants (% damage vs untreated control), Poa ([9]; 250 g of ai./ha): 95%
5 | C=CCOc1nn(C(=O)NS(=O)(=O)c2c(C)cccc2C(=O)OC)c(=O)n1C [Example 148] | 80 | 95 | 80 | 40 | very strong activity against weeds | 90 | 80 | 0 | 95 | –
6 | CCSc1nn(C(=O)NS(=O)(=O)c2c(C)csc2C(=O)OC)c(=O)n1C [Example 34] | 90 | 90 | 95 | 10 | very strong activity against weeds | 80 | 60 | 0 | 70 | –
7 | CCCOC(=O)c1cccc(C)c1S(=O)(=O)NC(=O)n1nc(CCC)n(C)c1=O [Example 47] | – | – | – | 10 | very strong activity against weeds | – | – | 10 | – | degree of damage to the plants (% damage vs untreated control), Ambrosia ([1]; 125 g of ai./ha): 95%; degree of damage to the plants (% damage vs untreated control), Solanum ([2]; 125 g of ai./ha): 95%; degree of damage to the plants (% damage vs untreated control), Matricaria ([3]; 125 g of ai./ha): 95%; degree of damage to the plants (% damage vs untreated control), Sorghum ([6]; 125 g of ai./ha): 60%; degree of damage to the plants (% damage vs untreated control), Lolium ([7]; 125 g of ai./ha): 90%; degree of damage to the plants (% damage vs untreated control), Poa ([9]; 125 g of ai./ha): 90%
